Measured values taken from PMC10779433, “Bidirectional Allosteric Coupling between PIP2 Binding and the Pore of the Oncochannel TRPV6” (International Journal of Molecular Sciences, 2024).
Residues, ends and D or L forms follow the SMILES beside them. *: point of attachment. Palmitoyl = CCCCCCCCCCCCCCCC(=O)*

Tests used:
[1] = test system: TRPV6 I575A; test: NFAT screen, TRPV6 I575A; assay type: cell-based, human; details: HEK293 cells; 5 μM cis-22a, 2 h, vs DMSO
Description: (§1) N-terminally TagRFP-labeled human TRPV6 (725 aa) was kindly provided by R. Bhardwaj and M. Hediger (University of Bern, Bern, Switzerland). This variant is translated from the first ATG codon and thus deviates from the non-ATG-initiated protein which is expressed in vivo (accession number NM_018646.6) by lacking 40 amino acids of the very N-terminus. For N-terminal labeling with EYFP, TRPV6 was cloned into pEYFP-C1 (Clontech) via EcoRI and SacII restriction sites. […]
(§2) After incubation, cover slips were carefully rinsed with phenol red-free DMEM supplemented with the compound and dosage corresponding to the previous incubation, which was then also present during imaging. […] Subcellular NFAT localization of TRPV6 expressing cells was again monitored on an Axiovert 135 inverted microscope (Zeiss, Oberkochen, Germany), as described in more detail before. […] Images were analyzed using Matlab2018a, differentiating between three cell populations based on the ratio of CFP emission intensity originating from the nucleus and the cytosol, similar to Schober et al. (2019).

[2] = test system: TRPV6 R470A W583F; test: NFAT screen, TRPV6 R470A W583F; assay type: cell-based, human; details: HEK293 cells; 5 μM cis-22a, 2 h
Description: as §1, §2

[3] = test system: TRPV6 G488R; details: ref [62]; cited from earlier work
From the text: As mentioned before, the G488R mutation resides within the segment linking the fourth and fifth transmembrane domain of TRPV6. Importantly, different examples exist throughout the entire TRP superfamily, highlighting the importance of the corresponding protein section for a proper channel function, for instance, by serving as a binding site for different agonists or antagonists.

[4] = test system: TRPV6 W583F; test: Whole-cell patch clamp, TRPV6 W583F; assay type: cell-based, human; details: HEK293 cells, 10 μM pal-PIP2 peptide, Figure 5C
From the text: N-terminally TagRFP-labeled human TRPV6 (725 aa) was kindly provided by R. Bhardwaj and M. Hediger (University of Bern, Bern, Switzerland). This variant is translated from the first ATG codon and thus deviates from the non-ATG-initiated protein which is expressed in vivo (accession number NM_018646.6) by lacking 40 amino acids of the very N-terminus. For N-terminal labeling with EYFP, TRPV6 was cloned into pEYFP-C1 (Clontech) via EcoRI and SacII restriction sites. Mutations (F468A, R470A, F472A, K484A/Q, G488R, R492A/Q, I575A, G579A, D580A/K, H582A, W583A/F, H587A, R589A, W593A, R632A/Q, R470A, W583F) were introduced using the QuickChange XL site-directed mutagenesis kit (Stratagene, San Diego, CA, USA) and Pfu DNA Polymerase (Promega, Madison, WI, USA). pTagRFP-hTRPV6 I575A was kindly provided by the lab of M. Hediger (University of Bern, Bern, Switzerland). Forward and reverse primers for site-directed mutagenesis were synthesized by Eurofins genomics GmbH (Wien, Vienna, Austria). Intactness of the constructs in terms of sequence was confirmed by sequencing (Microsynth Austria GmbH, Wien, Vienna, Austria; Eurofins genomics GmbH, Wien, Vienna, Austria). […]
Electrophysiological experiments were performed at 20 °C to 24 °C in whole-cell recording configurations of the patch clamp technique. […] The liquid junction potential was determined as 12 mV; the voltages were not adjusted. […]

| SMILES | change of nuclear NFAT localization [1] | NFAT localization patterns [2] | sensitivity to cis-22a (in words) [3] | sensitivity to peptide-based PIP2 sequestration vs WT [4] |
| --- | --- | --- | --- | --- |
| Cc1cccc(C2CCC(N3CCN(c4cccnc4)CC3)CC2)c1.O=C(O)C(F)(F)F (stereo not drawn) [cis-22a] | not significantly changed | unable to change localization patterns | largely insensitive |  |
| CCCCCCCCCCCCCCCC(=O)N[C@@H](Cc1c[nH]cn1)C(=O)N[C@@H](CCCNC(=N)N)C(=O)N[C@@H](CCC(N)=O)C(=O)N[C@@H](CCCCN)C(=O)N[C@@H](Cc1c[nH]cn1)C(=O)N[C@@H](Cc1ccccc1)C(=O)N[C@@H](CCC(=O)O)C(=O)N[C@@H](CCCCN)C(=O)N[C@@H](CCCNC(=N)N)C(=O)N[C@@H](CCCNC(=N)N)C(N)=O [pal-PIP2 peptide] (Palmitoyl-HRQKHFEKRR-NH2) |  |  |  | not changed compared to the wildtype control |
